Data from patent publication US11718604B2, “4-amino-6-(1,3-benzodioxole)picolinates and their use as herbicides” (Dow AgroSciences LLC, priority 2018, dated 2023).

Tests used:
Type in all cases: in vivo
[1] = tested on: EPHHL: wild poinsettia (Euphorbia heterophylla); experiment: Post-emergent herbicidal test, wild poinsettia; details: post-emergence, 336 h, 14 days after application, read-out: Visual Growth Reduction (%) 14 Days After Application EPHHL; for pest or weed control at 17.5 g/ha: 17.5 g ai/ha; for pest or weed control at 35 g/ha: 35 g ai/ha; for pest or weed control at 70 g/ha: 70 g ai/ha; for pest or weed control at 140 g/ha: 140 g ai/ha
Procedure, shortened: (§1)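 Plants are raised in potting mix of pH 6.0 to 6.8 in a greenhouse until the first or second true leaf, then sprayed with formulated compound at 187 L/ha at several rates (½× to 1/16× of the top rate). After 14 d, damage is rated visually as percent injury against untreated plants.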

[2] = tested on: VIOTR: wild violet (Viola tricolor); experiment: Post-emergent herbicidal test, wild violet; details: post-emergence, 336 h, 14 days after application, read-out: Visual Growth Reduction (%) 14 Days After Application VIOTR; for pest or weed control at 17.5 g/ha: 17.5 g ai/ha; for pest or weed control at 35 g/ha: 35 g ai/ha; for pest or weed control at 70 g/ha: 70 g ai/ha; for pest or weed control at 140 g/ha: 140 g ai/ha
Procedure, shortened: as §1

[3] = tested on: SETFA: giant foxtail (Setaria faberi); experiment: Post-emergent herbicidal test, giant foxtail; details: post-emergence, 336 h, 14 days after application, read-out: Visual Growth Reduction (%) 14 Days After Application SETFA; for pest or weed control at 17.5 g/ha: 17.5 g ai/ha; for pest or weed control at 35 g/ha: 35 g ai/ha; for pest or weed control at 70 g/ha: 70 g ai/ha; for pest or weed control at 140 g/ha: 140 g ai/ha
Procedure, shortened: as §1

[4] = tested on: BRSNN: oilseed rape, canola (Brassica napus); experiment: Post-emergent herbicidal test, oilseed rape; details: post-emergence, 336 h, 14 days after application, read-out: Visual Growth Reduction (%) 14 Days After Application BRSNN; for pest or weed control at 17.5 g/ha: 17.5 g ai/ha; for pest or weed control at 35 g/ha: 35 g ai/ha; for pest or weed control at 70 g/ha: 70 g ai/ha; for pest or weed control at 140 g/ha: 140 g ai/ha
Procedure, shortened: as §1

[5] = tested on: ABUTH: velvetleaf (Abutilon theophrasti); experiment: Post-emergent herbicidal test, velvetleaf; details: post-emergence, 336 h, 14 days after application, read-out: Visual Growth Reduction (%) 14 Days After Application ABUTH; for pest or weed control at 17.5 g/ha: 17.5 g ai/ha; for pest or weed control at 35 g/ha: 35 g ai/ha; for pest or weed control at 70 g/ha: 70 g ai/ha; for pest or weed control at 140 g/ha: 140 g ai/ha
Procedure, shortened: as §1

[6] = tested on: IPOHE: ivyleaf morningglory (Ipomoea hederacea); experiment: Post-emergent herbicidal test, ivyleaf morningglory; details: post-emergence, 336 h, 14 days after application, read-out: Visual Growth Reduction (%) 14 Days After Application IPOHE; for pest or weed control at 17.5 g/ha: 17.5 g ai/ha; for pest or weed control at 35 g/ha: 35 g ai/ha; for pest or weed control at 70 g/ha: 70 g ai/ha; for pest or weed control at 140 g/ha: 140 g ai/ha
Procedure, shortened: as §1

[7] = tested on: DIGSA: large crabgrass (Digitaria sanguinalis); experiment: Post-emergent herbicidal test, large crabgrass; details: post-emergence, 336 h, 14 days after application, read-out: Visual Growth Reduction (%) 14 Days After Application DIGSA; for pest or weed control at 17.5 g/ha: 17.5 g ai/ha; for pest or weed control at 35 g/ha: 35 g ai/ha; for pest or weed control at 70 g/ha: 70 g ai/ha; for pest or weed control at 140 g/ha: 140 g ai/ha
Procedure, shortened: as §1

[8] = tested on: CIRAR: Canada thistle (Cirsium arvense); experiment: Post-emergent herbicidal test, Canada thistle; details: post-emergence, 336 h, 14 days after application, read-out: Visual Growth Reduction (%) 14 Days After Application CIRAR; for pest or weed control at 17.5 g/ha: 17.5 g ai/ha; for pest or weed control at 35 g/ha: 35 g ai/ha; for pest or weed control at 70 g/ha: 70 g ai/ha; for pest or weed control at 140 g/ha: 140 g ai/ha
Procedure, shortened: as §1

[9] = tested on: SORVU: shattercane (Sorghum bicolor); experiment: Post-emergent herbicidal test, shattercane; details: post-emergence, 336 h, 14 days after application, read-out: Visual Growth Reduction (%) 14 Days After Application SORVU; for pest or weed control at 17.5 g/ha: 17.5 g ai/ha; for pest or weed control at 35 g/ha: 35 g ai/ha; for pest or weed control at 70 g/ha: 70 g ai/ha; for pest or weed control at 140 g/ha: 140 g ai/ha
Procedure, shortened: as §1

[10] = tested on: CYPES: yellow nutsedge (Cyperus esculentus); experiment: Post-emergent herbicidal test, yellow nutsedge; details: post-emergence, 336 h, 14 days after application, read-out: Visual Growth Reduction (%) 14 Days After Application CYPES; for pest or weed control at 17.5 g/ha: 17.5 g ai/ha; for pest or weed control at 35 g/ha: 35 g ai/ha; for pest or weed control at 70 g/ha: 70 g ai/ha; for pest or weed control at 140 g/ha: 140 g ai/ha
Procedure, shortened: as §1

[11] = tested on: ECHCG: barnyardgrass (Echinochloa crus-galli); experiment: Post-emergent herbicidal test, barnyardgrass; details: post-emergence, 336 h, 14 days after application, read-out: Visual Growth Reduction (%) 14 Days After Application ECHCG; for pest or weed control at 17.5 g/ha: 17.5 g ai/ha; for pest or weed control at 35 g/ha: 35 g ai/ha; for pest or weed control at 70 g/ha: 70 g ai/ha; for pest or weed control at 140 g/ha: 140 g ai/ha
Procedure, shortened: as §1

SMILES: Nc1c(F)c(-c2cccc3c2OCO3)nc(C(=O)O)c1Cl [Compound 3]
- pest or weed control at 17.5 g/ha [1]: 0%
- pest or weed control at 35 g/ha [1]: 0%
- pest or weed control at 70 g/ha [1]: 0%
- pest or weed control at 140 g/ha [1]: 0%
- pest or weed control at 17.5 g/ha [2]: 0%
- pest or weed control at 35 g/ha [2]: 15%
- pest or weed control at 70 g/ha [2]: 30%
- pest or weed control at 140 g/ha [2]: 35%
- pest or weed control at 17.5 g/ha [3]: 0%
- pest or weed control at 35 g/ha [3]: 0%
- pest or weed control at 70 g/ha [3]: 0%
- pest or weed control at 140 g/ha [3]: 0%
- pest or weed control at 17.5 g/ha [4]: 60%
- pest or weed control at 35 g/ha [4]: 80%
- pest or weed control at 70 g/ha [4]: 95%
- pest or weed control at 140 g/ha [4]: 98%
- pest or weed control at 17.5 g/ha [5]: 60%
- pest or weed control at 35 g/ha [5]: 80%
- pest or weed control at 70 g/ha [5]: 95%
- pest or weed control at 140 g/ha [5]: 95%
- pest or weed control at 17.5 g/ha [6]: 0%
- pest or weed control at 35 g/ha [6]: 0%
- pest or weed control at 70 g/ha [6]: 0%
- pest or weed control at 140 g/ha [6]: 0%
- pest or weed control at 17.5 g/ha [7]: 0%
- pest or weed control at 35 g/ha [7]: 0%
- pest or weed control at 70 g/ha [7]: 0%
- pest or weed control at 140 g/ha [7]: 0%
- pest or weed control at 17.5 g/ha [8]: 70%
- pest or weed control at 35 g/ha [8]: 85%
- pest or weed control at 70 g/ha [8]: 95%
- pest or weed control at 140 g/ha [8]: 95%
- pest or weed control at 17.5 g/ha [9]: 0%
- pest or weed control at 35 g/ha [9]: 0%
- pest or weed control at 70 g/ha [9]: 0%
- pest or weed control at 140 g/ha [9]: 0%
- pest or weed control at 17.5 g/ha [10]: 0%
- pest or weed control at 35 g/ha [10]: 0%
- pest or weed control at 70 g/ha [10]: 0%
- pest or weed control at 140 g/ha [10]: 0%
- pest or weed control at 17.5 g/ha [11]: 0%
- pest or weed control at 35 g/ha [11]: 0%
- pest or weed control at 70 g/ha [11]: 0%
- pest or weed control at 140 g/ha [11]: 0%

SMILES: COC(=O)c1nc(-c2cccc3c2OC(F)(F)O3)c(F)c(N)c1Cl [Compound 4]
- pest or weed control at 17.5 g/ha [1]: 0%
- pest or weed control at 35 g/ha [1]: 0%
- pest or weed control at 70 g/ha [1]: 0%
- pest or weed control at 140 g/ha [1]: 0%
- pest or weed control at 17.5 g/ha [2]: 0%
- pest or weed control at 35 g/ha [2]: 0%
- pest or weed control at 70 g/ha [2]: 20%
- pest or weed control at 140 g/ha [2]: 35%
- pest or weed control at 17.5 g/ha [3]: 0%
- pest or weed control at 35 g/ha [3]: 0%
- pest or weed control at 70 g/ha [3]: 0%
- pest or weed control at 140 g/ha [3]: 0%
- pest or weed control at 17.5 g/ha [4]: 85%
- pest or weed control at 35 g/ha [4]: 90%
- pest or weed control at 70 g/ha [4]: 95%
- pest or weed control at 140 g/ha [4]: 95%
- pest or weed control at 17.5 g/ha [5]: 70%
- pest or weed control at 35 g/ha [5]: 80%
- pest or weed control at 70 g/ha [5]: 80%
- pest or weed control at 140 g/ha [5]: 85%
- pest or weed control at 17.5 g/ha [6]: 0%
- pest or weed control at 35 g/ha [6]: 10%
- pest or weed control at 70 g/ha [6]: 10%
- pest or weed control at 140 g/ha [6]: 30%
- pest or weed control at 17.5 g/ha [7]: 0%
- pest or weed control at 35 g/ha [7]: 0%
- pest or weed control at 70 g/ha [7]: 0%
- pest or weed control at 140 g/ha [7]: 0%
- pest or weed control at 17.5 g/ha [8]: 80%
- pest or weed control at 35 g/ha [8]: 90%
- pest or weed control at 70 g/ha [8]: 95%
- pest or weed control at 140 g/ha [8]: 90%
- pest or weed control at 17.5 g/ha [9]: 0%
- pest or weed control at 35 g/ha [9]: 0%
- pest or weed control at 70 g/ha [9]: 0%
- pest or weed control at 140 g/ha [9]: 0%
- pest or weed control at 17.5 g/ha [10]: 0%
- pest or weed control at 35 g/ha [10]: 20%
- pest or weed control at 70 g/ha [10]: 50%
- pest or weed control at 140 g/ha [10]: 50%
- pest or weed control at 17.5 g/ha [11]: 0%
- pest or weed control at 35 g/ha [11]: 0%
- pest or weed control at 70 g/ha [11]: 0%
- pest or weed control at 140 g/ha [11]: 0%
